Consider 4 compounds from paper PMC6649662, “A molecular basis of human T cell receptor autoreactivity toward self-phospholipids” (Science immunology, 2017).

The target in assay [1] is T1, CD1b (CD1b-β2m) (Homo sapiens, UniProt P29016).
T1 construct: soluble, transmembrane-truncated CD1b with β2m; from HEK 293S GnTI- or Trichoplusia ni High Five cells; lipid-loaded and purified; with Beta-2-microglobulin
In words: X-ray crystal structure. The settings on record: antigen-binding cleft, with scaffold lipids; weak density for head group.

Assay [2] deals with T1, CD1b (CD1b-β2m). In words: lipid loading, isoelectric focusing shift and anion exchange purification. The class given is binding. The following applies: loaded in vitro.

As to `CCCCCCCC/C=C\CCCCCCCC(=O)O[C@H](COC(=O)CCCCCCCCCCCCCCC)COP(=O)(O)O` [PA, phosphatidic acid], the X-ray crystal structure entry on CD1b (CD1b-β2m) [1] is “structures of the PG90 TCR and the CD1b-PS and CD1b- PA complexes”.

Turning to `CCCCCCCC/C=C\CCCCCCCC(=O)O[C@H](COC(=O)CCCCCCCCCCCCCCC)COP(=O)(O)OCCN` [PE, phosphatidylethanolamine], at CD1b (CD1b-β2m) [2], the “lipid loading, isoelectric focusing shift and anion exchange purification” value was “phospholipids are loaded into CD1b at high occupancy and purified to homogeneity”.

For the compound `CCCCCCCC/C=C\CCCCCCCC(=O)O[C@H](COC(=O)CCCCCCCCCCCCCCC)COP(=O)(O)OC[C@H](N)C(=O)O` [PS, phosphatidylserine], the X-ray crystal structure entry at CD1b (CD1b-β2m) [1] was “structures of the PG90 TCR and the CD1b-PS and CD1b- PA complexes”.

On to `CCCCCCCC/C=C\CCCCCCCC(=O)O[C@H](COC(=O)CCCCCCCCCCCCCCC)COP(=O)(O)O[C@@H]1[C@H](O)[C@H](O)[C@@H](O)[C@H](O)[C@H]1O` [PI, phosphatidylinositol], for which the “lipid loading, isoelectric focusing shift and anion exchange purification” value on CD1b (CD1b-β2m) [2] is “phospholipids are loaded into CD1b at high occupancy and purified to homogeneity”.
